The target in the assay is hepatocyte growth factor receptor (MET), exon 14 skipped (Homo sapiens, UniProt P08581, DEL963-1009). Put plainly: PROTAC degradation of METex14Δ-GFP by live cell imaging in HEK293. In kind it is cell-based.

The results in this text go back to PMC11967169 (RSC Advances, 2025).

A word on the DC50: it is the midpoint of the concentration-degradation curve. `COc1cc2c(Oc3ccc(NC(=O)C4(C(=O)Nc5ccc(F)cc5)CC4)cc3F)ccnc2cc1OCCCOCCCOCCC(=O)N[C@H](C(=O)N1C[C@H](O)C[C@H]1C(=O)NCc1ccc(-c2scnc2C)cc1)C(C)(C)C`: the DC50 came out at 2610 ± 115 nM.
